Test results taken from paper PMC5928083, “Structural basis for energy transduction by respiratory alternative complex III” (Nature Communications, 2018).

Biological target: T1, ACIII (alternative complex III) (Rhodothermus marinus, UniProt D0MDD6)
T1 construct: gene Rmar_0223; native multi-subunit membrane complex purified from R. marinus membranes in DDM; ActB Tat signal peptide (74 residues) absent; one further unidentified subunit; with Quinol:cytochrome c oxidoreductase pentaheme cytochrome subunit (alternative complex III subunit ActA); Quinol:cytochrome c oxidoreductase iron-sulfur protein (alternative complex III subunit ActB); Quinol:cytochrome c oxidoreductase membrane protein (alternative complex III subunit ActD); Quinol:cytochrome c oxidoreductase monoheme cytochrome subunit (alternative complex III subunit ActE); Alternative complex III subunit ActG; Hypothetical protein Rmar_1979 (ActH)
Experiment: isothermal titration calorimetry
Assay type: binding
Conditions: read-out: log Ka (converted)

Kd: 316 nM
SMILES: CC1=C(C)C(=O)c2ccccc2C1=O [2,3-dimethyl-1,4-naphthoquinone]
